In patent publication US20220152523A1, “Cannabinoid Separation by Countercurrent Chromatography” (priority 2019, published 2022):
Where two headings read alike, the source gives them in different places.

[1] = solvent system SS 1: sec-BuOH-1% TFA/water (1:1)
[2] = solvent system SS 3: Hexane-acetone-acetonitrile (5:2:3)
[3] = solvent system SS 4: EtOAc-n-BuOH-water (2:1:3)
[4] = solvent system SS 5: EtOAc-n-BuOH-1% aq. TFA (2:1:3)
[5] = solvent system SS 6: Hexane-EtOAc-MeOH-water (6:1:6:1)
[6] = solvent system Sec-BuOH-water (1:1)

SMILES: CCCCCc1cc(O)c2c(c1)OC(C)(C)[C@@H]1CCC(C)=C[C@@H]21 [THC, Δ9-Tetrahydrocannabinol]
- K, partition coefficient (ratio of upper phase to lower phase) [1]: 6.14
- K, partition coefficient (ratio of upper phase to lower phase) [2]: 0.56
- K, partition coefficient (ratio of upper phase to lower phase) [3]: 6.55
- K, partition coefficient (ratio of upper phase to lower phase) [4]: 10.9
- K, partition coefficient (ratio of upper phase to lower phase) [5]: 2.4
- K, partition coefficient (ratio of upper phase to lower phase) [6]: 9.4
- K, partition coefficient (ratio of upper phase to lower phase) (solvent system n-BuOH-water (1:1)): 33

SMILES: C=C(C)[C@@H]1CCC(C)=C[C@H]1c1c(O)cc(CCCCC)cc1O [CBD, cannabidiol]
- K, partition coefficient (ratio of upper phase to lower phase) [1]: 2.7
- K, partition coefficient (ratio of upper phase to lower phase) (solvent system SS 2: n-BuOH-1% aq. TFA (1:1)): 8.6
- K, partition coefficient (ratio of upper phase to lower phase) [2]: 0.99
- K, partition coefficient (ratio of upper phase to lower phase) [3]: 4.2
- K, partition coefficient (ratio of upper phase to lower phase) [4]: 16.5
- K, partition coefficient (ratio of upper phase to lower phase) [5]: 0.5
- K, partition coefficient (ratio of upper phase to lower phase) [6]: 5.5
